# Results reported in publication PMC4473678, “Swedish mutant APP-based BACE1 binding site peptide reduces APP β-cleavage and cerebral Aβ levels in Alzheimer’s mice” (Scientific Reports, 2015).
# “Also recorded” adds a separate entry of the source.
# Experiments:
# [1] = system: 5XFAD mice; test: Cerebral Aβ ELISA, 5XFAD mice; assay type: in vivo, mouse; conditions: 100 nmol/kg i.p. daily, 8 weeks, versus TAT or PBS, *P < 0.05, **P < 0.01, ***P < 0.005, listed as TAT-APPsweBBP
# Experimental: Transgenic AD mice [5XFAD; B6SJL-Tg(APPSwFlLon,PSEN1*M146L*L286V) 6799Vas/Mmjax] at 2.5 months of age were obtained from the Jackson Laboratory (Bar Harbor, ME) and housed and maintained in the Animal Facility of College of Medicine at University of South Florida (USF). The mice at 3.5 months of age were treated with TAT-APPsweBBP, TAT peptide (100 nmol/kg in 100 μL PBS) or PBS (100 μL) daily by intraperitioneal injection (i.p.) for eight consecutive weeks. The mice were subjected to behavioral testing after 8-week treatment and then euthanized for immunohistochemical, WB and ELISA analyses. Animals were housed and maintained at USF and all experiments were in compliance with protocols approved by USF Institutional Animal Care and Use Committee. […]
# (§1) Mouse brains were homogenized in ice-cold lysis buffer for 30 s using a Minilys tissue homogenizer (Bertin Technologies, Montigny-le-Bretonneux, France) set at high speed, allowed to stand for 15 min at 4 °C, and centrifuged at 15000 rpm for 30 min. Soluble Aβ1−40/42 species and sAPPα were directly detected in cultured cell media or brain homogenates using the Aβ1−40/42 (Invitrogen) and sAPPα ELISA kits (IBL-America, Minneapolis, MN). Detergent-insoluble total […] species were detected in brain by extracting pellets in 5 M guanidine HCl buffer, followed by a 1:20 dilution in lysis buffer.
# [2] = system: BACE1 in CHO/APPwt cells; test: IP/WB of BACE1 binding in CHO/APPwt cell lysates; design: species or system Chinese hamster; conditions: biotin-labeled peptide 20 μM, 30 min, anti-biotin IP, listed as TAT-APPsweBBP
# [3] = system: CHO/APPswe cells; test: APP processing in CHO/APPswe cells (WB, ELISA); assay type: cell-based, Chinese hamster; conditions: 0 to 20 μM, 24 h
# Experimental: (§2) Chinese hamster ovary (CHO) cells engineered to express human APPwt (CHO/APPwt cells) or human APPswe (CHO/APPswe cells) were kindly provided by Dr. Stefanie Hahn and Dr. Sascha Weggen (University of Heinrich Heine, Dusseldorf, Germany). As described in our recent report, these cells were cultured in Dulbecco’s modified Eagle’s medium with 10% fetal bovine serum, 1 mM sodium pyruvate and 100 U/mL of penicillin/streptomycin.
# (§3) Following application of blocking buffer, these cells were stained with mouse anti-BACE1 and anti-biotin antibodies overnight at 4 °C for immunocytochemical analysis. In order to determine the inhibitory effects of TAT-APPsweBBP on BACE1-mediated APP β-cleavage and subsequent Aβ production, both CHO/APPwt and CHO/APPswe cells were plated in 24 well-plates (3×10^5/well) and treated with TAT-APPsweBBP at 0 to 20 μM for 24 h. The cultured media were collected for Aβ and sAPPα analysis by ELISA and WB. Cell lysates were also prepared for analysis of APP amyloidogenic processing by WB.
# (§4) WB analysis was performed as previously described. Briefly, the proteins from the various cell-free suspensions, cell lysates and brain homogenates were electrophoretically separated using 10% bicine/tris gel (8 M urea) for proteins less than 5 kD or 10% tricine/tris gels for larger proteins. Electrophoresed proteins were transferred to polyvinylidene difluoride membranes (Bio-Rad, Richmond, CA), washed and blocked for 2 h at room temperature in Tris-buffered saline containing 5% (w/v) nonfat dry milk (TBS/NFDM). After blocking, membranes were hybridized for 2 h with various primary antibodies, washed and incubated for 1 h with the appropriate HRP-conjugated secondary antibody in TBS/NFDM. Blots were developed using the luminol reagent (Thermo Fisher Scientific, Waltham, MA).
# as §1
# [4] = system: recombinant BACE1 protein; test: Immunoprecipitation/WB of peptide-BACE1 binding, cell-free; conditions: 10 μg biotin-labeled peptide with 10 μL recombinant BACE1 (1.0 U/mL), 4 h, 37 °C; anti-BACE1 IP/anti-biotin WB and reverse; listed as TAT-APPsweBBP
# Experimental: In order to confirm that APPsweBBP containing the β-cleavage site could bind to and be consequently proteolyzed by BACE1, 10 μg of biotin-labeled TAT-APPsweBBP was incubated with or without 10 μL of recombinant BACE1 protein (1.0 U/mL) in BACE1 reaction buffer for 4 h at 37 °C and then subjected to WB analysis as described previously. In addition, we performed immunoprecipitation (IP) and WB analyses of this mixture with anti-BACE1 and anti-biotin antibodies to confirm that TAT-APPsweBBP, but not TAT, specifically binds to BACE1.
# [5] = system: CHO/APPwt cells; test: APP processing in CHO/APPwt cells (WB, ELISA); assay type: cell-based, Chinese hamster; conditions: 0 to 20 μM, 24 h
# Experimental: as §2, §3, §4, §1
# [6] = system: 5XFAD mice; test: β-amyloid immunohistochemistry (4G8), 5XFAD mice; assay type: in vivo, mouse; conditions: 100 nmol/kg i.p. daily, 8 weeks, RSC, EC and H regions, n = 10, 5 female/5 male, listed as TAT-APPsweBBP
# Experimental: Transgenic AD mice [5XFAD; B6SJL-Tg(APPSwFlLon,PSEN1*M146L*L286V) 6799Vas/Mmjax] at 2.5 months of age were obtained from the Jackson Laboratory (Bar Harbor, ME) and housed and maintained in the Animal Facility of College of Medicine at University of South Florida (USF). The mice at 3.5 months of age were treated with TAT-APPsweBBP, TAT peptide (100 nmol/kg in 100 μL PBS) or PBS (100 μL) daily by intraperitioneal injection (i.p.) for eight consecutive weeks. The mice were subjected to behavioral testing after 8-week treatment and then euthanized for immunohistochemical, WB and ELISA analyses. Animals were housed and maintained at USF and all experiments were in compliance with protocols approved by USF Institutional Animal Care and Use Committee. All methods were performed in accordance with relevant guidelines and regulations.
# For paraffin brain tissues, we sectioned five coronal sections per region with a 100-μm interval and a thickness of 5-μm for retrosplenial cortex (RSC), entorhinal cortex (EC), and hippocampus (H), located at bregma −2.92 to −3.64 mm. […] Images were acquired as digitized tagged-image format files (to retain maximum resolution) using a BX60 microscope with an attached CCD camera system (DP-70, Olympus, Tokyo, Japan), and digital images were routed into a Windows PC for quantitative analyses using SimplePCI software (Hamamatsu Photonics, Hamamatsu, Shizuoka, Japan). […]
# [7] = system: brain of 5XFAD mice; test: BBB penetration after i.p. administration (brain section confocal imaging)
# Experimental: 5XFAD mice at 2 months of age (n = 5, female) were treated intraperitoneally with biotin-labeled TAT-APPsweBBP or APPsweBBP (100 nmol/kg) daily for 5 days and then euthanized 4 h after the last injection. Brain tissues were removed, sectioned and stained with anti-BACE1 and anti-biotin antibodies.
# Fixed cell cultures and brain sections were stained with indicated antibodies and then treated with donkey anti-mouse IgG conjugated with Alexa Fluor 488 (1:200) or goat anti-rabbit IgG conjugated with Alexa Fluor 594 (1:200; Invitrogen, Carlsbad, CA). The slides were then washed, mounted with DAPI medium (Vector Laboratories, Burlingame, CA) and visualized with an Olympus FV1000 confocal microscope (Tokyo, Japan).
# [8] = *P < 0.05, **P < 0.01, three independent experiments, each triplicated
sequence,measurement,setting,value
YGRKKRRQRRREISEVNLDAEFR,detergent-insoluble Aβ1−40/42 in brain,[1],statistically significant decreases; also recorded: significantly reduced
same,detergent-soluble Aβ1−40/42 in brain,[1],statistically significant decreases; also recorded: significantly reduced
same,binding to BACE1 in cell lysates,[2],strongly and specifically binds to BACE1; also recorded: markedly bound to BACE1 compared to APPsweBBP
same,holo APP expression by WB,[3],leaving holo APP expression unaltered
same,sAPPα by WB,[3],promoting
same,β-CTF by WB,[3],markedly inhibited
same,Aβ1−40/42 by ELISA,[3]; [8],significantly decreased
same,sAPPα by ELISA,[3]; [8],increased sAPPα levels in a dose-dependent manner
same,Aβ by WB,[3]; listed as TAT-APPsweBBP,markedly decreased Aβs; also recorded: markedly inhibited
same,binding to BACE1 (co-immunoprecipitation),[4],binds to BACE1 protein; also recorded: strongly binds to
same,holo APP expression by WB,[5],leaving holo APP expression unaltered
same,sAPPα by WB,[5],promoting
same,Aβ1−40/42 by ELISA,[5]; [8],significantly decreased
same,sAPPα by ELISA,[5]; [8],increased sAPPα levels in a dose-dependent manner
same,Aβ by WB,[5]; listed as TAT-APPsweBBP,markedly decreased Aβs; also recorded: markedly inhibited
same,α-CTF by WB,[5]; listed as TAT-APPsweBBP,increased α-CTF; also recorded: promoting α-CTF
same,β-amyloid plaques / 4G8 immunoreactive area,[6],greatly reduced; also recorded: markedly reduced β-amyloid plaques; also recorded: significant differences between TAT-APPsweBBP and TAT peptide treatment groups (**P < 0.01)
same,association with BACE1 in brain,"[7]; 5XFAD mice, 2 months, n = 5, female, biotin-labeled peptide 100 nmol/kg i.p. daily 5 days, 4 h after last injection",more highly associates with BACE1 compared to APPsweBBP
same,BBB penetration / brain distribution,"[7]; 5XFAD mice, 2 months, n = 5, female, biotin-labeled peptide 100 nmol/kg i.p. daily 5 days, 4 h after last injection, confocal images, listed as TAT-APPsweBBP",highly penetrated the BBB and was detectable in both the cortical and hippocampal regions; also recorded: more permeable across the BBB; also recorded: greater distribution of TAT-APPsweBBP than APPsweBBP into cortical and hippocampal regions
same,BBB penetration (Fig. S4 legend),"[7]; peripheral injection, Fig. S4",freely enters brain microvascular endothelial cells
